Active and inactive are the calls of the source. The rule behind the calls is not given here.
Legend:
[1] = target: T1, DNA topoisomerase 1 (Homo sapiens) (UniProt P11387); test: Inhibition of recombinant human topoisomerase 1-mediated unwinding of supercoiled plasmid DNA assessed as DNA intercalation at 50 uM after 2 hrs by gel electrophoresis
T1 sequence (whole entry): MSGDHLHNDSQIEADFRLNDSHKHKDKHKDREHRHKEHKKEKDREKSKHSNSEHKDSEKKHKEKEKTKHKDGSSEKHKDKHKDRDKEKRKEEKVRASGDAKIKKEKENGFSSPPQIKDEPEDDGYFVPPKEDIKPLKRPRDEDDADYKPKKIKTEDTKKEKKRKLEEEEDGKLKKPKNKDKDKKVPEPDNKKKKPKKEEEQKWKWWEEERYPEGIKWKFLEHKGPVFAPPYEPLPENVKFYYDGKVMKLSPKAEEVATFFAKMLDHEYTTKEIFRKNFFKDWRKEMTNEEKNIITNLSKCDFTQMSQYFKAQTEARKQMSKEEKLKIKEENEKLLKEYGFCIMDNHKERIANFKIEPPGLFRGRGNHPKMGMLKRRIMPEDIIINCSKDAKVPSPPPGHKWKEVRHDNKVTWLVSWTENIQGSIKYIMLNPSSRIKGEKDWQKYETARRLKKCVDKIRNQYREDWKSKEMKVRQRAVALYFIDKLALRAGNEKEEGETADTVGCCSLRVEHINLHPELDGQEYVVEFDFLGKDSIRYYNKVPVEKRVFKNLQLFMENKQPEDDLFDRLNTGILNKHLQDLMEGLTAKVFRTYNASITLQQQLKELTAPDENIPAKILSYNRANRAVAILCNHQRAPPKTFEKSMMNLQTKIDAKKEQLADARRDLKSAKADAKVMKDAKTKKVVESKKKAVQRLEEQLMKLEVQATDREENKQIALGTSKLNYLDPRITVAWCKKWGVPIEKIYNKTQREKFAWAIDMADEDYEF

[2] = target: T1, DNA topoisomerase 1 (Homo sapiens); test: Inhibition of recombinant human topoisomerase 1-mediated unwinding of supercoiled plasmid DNA assessed as DNA intercalation at 12.5 to 100 uM by gel electrophoresis; settings: TDE = time-dependent effect
HT-1080 = test: Cytocidal activity against human HT1080 cells assessed as growth inhibition after 48 hrs by SRB assay; assay type: functional; settings: HT-1080, 48 h
[3] = target: T1, DNA topoisomerase 1 (Homo sapiens); test: Inhibition of recombinant human topoisomerase 1-mediated unwinding of supercoiled plasmid DNA assessed as formation of nicked open circular DNA at 12.5 to 100 uM after 2 hrs by gel electrophoresis
[4] = Dissociation constant, pKa of the compound; assay type: physicochemical
[5] = target: T1, DNA topoisomerase 1 (Homo sapiens); test: Inhibition of recombinant human topoisomerase 1-mediated unwinding of supercoiled plasmid DNA assessed as DNA intercalation at 25 uM after 2 hrs by gel electrophoresis
HT-29 = test: Cytocidal activity against human HT-29 cells assessed as growth inhibition after 48 hrs by SRB assay; assay type: functional; settings: HT-29, 48 h
M21 = test: Cytocidal activity against human M21 cells assessed as growth inhibition after 48 hrs by SRB assay; assay type: functional; settings: M21, 48 h
MCF7 = test: Cytocidal activity against human MCF7 cells assessed as growth inhibition after 48 hrs by SRB assay; assay type: functional; settings: MCF7, 48 h
[6] = target: T1, DNA topoisomerase 1 (Homo sapiens); test: Inhibition of recombinant human topoisomerase 1-mediated unwinding of supercoiled plasmid DNA assessed as DNA intercalation at 100 to 200 uM after 2 hrs by gel electrophoresis
[7] = target: T1, DNA topoisomerase 1 (Homo sapiens); test: Inhibition of recombinant human topoisomerase 1-mediated unwinding of supercoiled plasmid DNA assessed as DNA intercalation after 2 hrs by gel electrophoresis

c1ccc(-c2ccc3ccn4ccnc4c3n2)cc1
inhibition [1]: Active
inhibition [2]: tde
GI50 (HT-1080): 54.7 µM
inhibition [3]: inactive
pKa [4]: 1.96
inhibition [5]: Active

COc1cc(-c2ccc3ccn4ccnc4c3n2)cc(OC)c1OC
GI50 (HT-29): 27.8 µM
inhibition [1]: Active
inhibition [2]: tde
GI50 (HT-1080): 29.2 µM
inhibition [3]: inactive
GI50 (M21): 24.5 µM
inhibition [5]: Active
GI50 (MCF7): 30.7 µM

COc1ccc(-c2ccc3ccn4ccnc4c3n2)cc1
GI50 (HT-29): 5.1 µM
inhibition [1]: Active
GI50 (HT-1080): 5.2 µM
GI50 (M21): 5 µM
inhibition [5]: Active
GI50 (MCF7): 6.9 µM

COc1cc(NS(C)(=O)=O)ccc1Nc1c2ccccc2nc2ccccc12 [AMSACRINE]
GI50 (HT-1080): 1.6 µM
GI50 (MCF7): 5.6 µM

O=c1c(-c2ccccc2)c[nH]c2c1ccn1ccnc21
GI50 (HT-29): > 100 µM
GI50 (HT-1080): > 100 µM
GI50 (M21): > 100 µM
GI50 (MCF7): > 100 µM

O=c1c(-c2ccccc2)c[nH]c2ccn3ccnc3c12
GI50 (HT-29): 34.2 µM
GI50 (HT-1080): 19.7 µM
GI50 (M21): 40.7 µM
GI50 (MCF7): 20 µM

COc1ccc(-c2c[nH]c3c(ccn4ccnc34)c2=O)cc1
GI50 (HT-29): > 100 µM
GI50 (HT-1080): > 100 µM
GI50 (M21): > 100 µM
GI50 (MCF7): > 100 µM

c1ccc2c(c1)CCc1cc3ccn4ccnc4c3nc1-2
pKa [4]: 2.43

c1ccc2cc3nc4c(ccn5ccnc45)cc3cc2c1
pKa [4]: 2.43

COc1cc(-c2c[nH]c3ccn4ccnc4c3c2=O)cc(OC)c1OC
GI50 (HT-29): 62.7 µM
GI50 (HT-1080): 92.5 µM
GI50 (M21): 82.7 µM
GI50 (MCF7): 71.9 µM

CCOC(=O)c1c[nH]c2ccn3cc(-c4ccccc4)nc3c2c1=O
GI50 (HT-29): 21.6 µM
GI50 (HT-1080): 10.4 µM
GI50 (M21): 13.4 µM
GI50 (MCF7): 20.5 µM

CCOC(=O)c1c[nH]c2c(ccn3ccnc23)c1=O
GI50 (HT-29): > 100 µM
GI50 (HT-1080): > 100 µM
GI50 (M21): > 100 µM
GI50 (MCF7): > 100 µM

CCOC(=O)c1c[nH]c2ccn3ccnc3c2c1=O
GI50 (HT-29): 4.5 µM
inhibition [1]: inactive
inhibition [6]: inactive
GI50 (HT-1080): 0.3 µM
GI50 (M21): 0.8 µM
inhibition [5]: inactive
GI50 (MCF7): 0.3 µM

CCOC(=O)c1c[nH]c2c(ccn3cc(C)nc23)c1=O
GI50 (HT-29): > 100 µM
GI50 (HT-1080): > 100 µM
GI50 (M21): > 100 µM
GI50 (MCF7): > 100 µM

O=C1CCCc2nc3c(ccn4ccnc34)cc21
pKa [4]: 2

CCBr
inhibition [7]: Active

Cc1cc2ccn3ccnc3c2nc1C
pKa [4]: 4.63

CCOC(=O)c1c[nH]c2ccn3cc(C)nc3c2c1=O
GI50 (HT-29): 63.2 µM
GI50 (HT-1080): 72.9 µM
GI50 (M21): 88.5 µM
GI50 (MCF7): 98.5 µM

CCOC(=O)C1CCc2nc3c(ccn4ccnc34)cc2C1 (centres undefined)
pKa [4]: 4.08

CCOC(=O)c1c[nH]c2c(ccn3cc(-c4cccc(OC)c4)nc23)c1=O
GI50 (HT-29): > 100 µM
GI50 (HT-1080): > 100 µM
GI50 (M21): > 100 µM
GI50 (MCF7): > 100 µM

Cc1ccc2ccn3ccnc3c2n1
pKa [4]: 4.23

c1ccc2c(c1)CCc1nc3c(ccn4ccnc34)cc1-2
pKa [4]: 3.53

CCOC(=O)c1c[nH]c2ccn3cc(C(C)C)nc3c2c1=O
GI50 (HT-29): 43.7 µM
GI50 (HT-1080): 22 µM
GI50 (M21): 26.9 µM
GI50 (MCF7): 37.3 µM

Cc1ccc(-c2ccc3ccn4ccnc4c3n2)cc1
GI50 (HT-29): 5.1 µM
inhibition [1]: inactive
inhibition [6]: inactive
GI50 (HT-1080): 10.7 µM
GI50 (M21): 6.4 µM
inhibition [5]: inactive
GI50 (MCF7): 7.6 µM

Clc1ccc(-c2ccc3ccn4ccnc4c3n2)cc1
GI50 (HT-29): 3.4 µM
inhibition [1]: Active
GI50 (HT-1080): 6.9 µM
GI50 (M21): 4.7 µM
inhibition [5]: Active
GI50 (MCF7): 7.1 µM

c1cn2ccc3cc4c(nc3c2n1)CCCC4
pKa [4]: 4.59

CCOC(=O)c1c[nH]c2c(ccn3cc(-c4ccccc4)nc23)c1=O
GI50 (HT-29): > 100 µM
GI50 (HT-1080): > 100 µM
GI50 (M21): > 100 µM
GI50 (MCF7): > 100 µM

COc1cc(-c2c[nH]c3c(ccn4ccnc34)c2=O)cc(OC)c1OC
GI50 (HT-29): > 100 µM
GI50 (HT-1080): > 100 µM
GI50 (M21): > 100 µM
GI50 (MCF7): > 100 µM

COc1ccc(-c2c[nH]c3ccn4ccnc4c3c2=O)cc1
GI50 (HT-29): 8.6 µM
inhibition [1]: inactive
inhibition [6]: inactive
GI50 (HT-1080): 1.2 µM
GI50 (M21): 1.3 µM
inhibition [5]: inactive
GI50 (MCF7): 1.1 µM

CCOC(=O)c1c[nH]c2ccn3cc(-c4cccc(OC)c4)nc3c2c1=O
GI50 (HT-29): 71.1 µM
GI50 (HT-1080): > 100 µM
GI50 (M21): 93.4 µM
GI50 (MCF7): 98 µM

CCOC(=O)c1c[nH]c2c(ccn3cc(C(C)C)nc23)c1=O
GI50 (HT-29): > 100 µM
GI50 (HT-1080): > 100 µM
GI50 (M21): > 100 µM
GI50 (MCF7): > 100 µM

Source: ChEMBL document CHEMBL2021761, “Imidazonaphthyridine systems (part 2): Functionalization of the phenyl ring linked to the pyridine pharmacophore and its replacement by a pyridinone ring produces intriguing differences in cytocidal activity” (Eur J Med Chem, 2012)
